From patent EP1202992B1, “ASCIDIDEMIN DERIVATIVES AND THEIR THERAPEUTIC APPLICATIONS” (CEPHALON FRANCE, priority 1999, dated 2001)
Like-named read-outs stand apart in the source and are kept apart here.

Legend:
[1] = test system: souris B6D2F1/Jico; experiment: Determination of the maximum tolerated dose (DMT); assay type: in vivo; settings: B6D2F1/Jico mice, single intraperitoneal administration, doses 2,5 to 160 mg/kg, survival over 14 days
Experimental: L'évaluation de la dose maximale tolérée a été réalisée chez des souris B6D2F1/Jico âgées de 4 à 6 semaines. Les composés ont été administrés par voie intrapéritonéale à des doses croissantes s'échelonnant de 2,5 à 160 mg/kg. La valeur de la DMT (exprimée en mg/kg) est déterminée à partir de l'observation du taux de survie des animaux sur une période de 14 jours après une administration unique du produit considéré. L'évolution pondérale des animaux est également suivie pendant cette période. Lorsque la valeur de la DMT est supérieure à 160 mg/kg, la valeur de la DMT est assimilée à 160 mg/kg par défaut.

[2] = test system: 12 lignées tumorales humaines; experiment: MTT colorimetric cytotoxicity test, all 12 tumour cell lines together; assay type: cell-based; settings: mean calculated from the cytotoxic activity on the 12 tumour cell lines; read-out: Cl 50 (the source's name)
From the text: (§1) L'influence des composés de formules I et la sur les cellules néoplasiques a été évaluée à l'aide du test colorimétrique MTT. Le principe du test MTT est basé sur la réduction mitochondriale par les cellules vivantes métaboliquement actives du produit MTT (3-(4,5-diméthylthiazol-2-yl)-2,5 diphényltétrazolium bromide) de couleur jaune en un produit de couleur bleue, le formazan. La quantité de formazan ainsi obtenue est directement proportionnelle à la quantité de cellules vivantes présentes dans le (ou les) puit(s) de culture. Cette quantité de formazan est mesurée par spectrophotométrie.
(§2) Les lignées cellulaires sont maintenues en culture monocouche à 37°C dans des boîtes de culture à bouchon fermé contenant du milieu de base MEM 25 MM HEPES (Minimum Essential Medium). Ce milieu, adapté à la croissance d'une gamme de cellules variées diploïdes ou primaires de mammifères, est ensuite additionné : • d'une quantité de 5% de SVF (Sérum de Veau Foetal) décomplémenté à 56°C pendant 1 heure, • de 0,6 mg/ml de L-glutamine, • de 200 IU/ml de pénicilline, • de […] de streptomycine, • de 0,1 mg/ml de gentamicine.
Les 12 lignées cellulaires cancéreuses humaines utilisées ont été obtenues auprès de l'American Type Culture Collection (ATCC, Rockville, MD, USA). Ces 12 lignées cellulaires sont : • U-373MG (code ATCC : HTB-17) et U-87MG (code ATCC : HTB-14) qui sont deux glioblastomes, • SW1088 (code ATCC : HTB-12) qui est un astrocytome, • A549 (code ATCC : CCL-185) et A-427 (code ATCC : HTB-53) qui sont deux cancers du poumon non-à-petites-cellules, • HCT-15 (code ATCC : CCL-225) et LoVo (code ATCC : CCL-229) qui sont deux cancers colorectaux, • T-47D (code ATCC : HTB-133) et MCF7 (code ATCC : HTB-22) qui sont deux cancers du sein, • J82 (code ATCC : HTB-1) et T24 (code ATCC : HTB-4) qui sont deux cancers de la vessie, • PC-3 (code ATCC : CRL-1435) qui est un cancer de la prostate.
Au plan expérimental : 100 µl d'une suspension cellulaire contenant 20 000 à 50 000 (selon le type cellulaire utilisé) cellules/ml de milieu de culture sont ensemencés en plaques multi-puits de 96 puits à fond plat et sont mis à incuber à 37°C, sous atmosphère comprenant 5% de CO2 et 70% d'humidité. Au bout de 24 heures d'incubation, le milieu de culture est remplacé par 100 µl de milieu frais contenant soit les différents composés à tester à des concentrations variant de 10^-5 à 10^-10 M soit le solvant ayant servi à la mise en solution des produits à tester (condition contrôle). Après 72 heures d'incubation dans les conditions précédentes, le milieu de culture est remplacé par 100 µl d'une solution jaunâtre de MTT dissous à raison de 1 mg/ml dans du RPMI 1640. Les microplaques sont remises à incuber pendant 3 heures à 37°C puis centrifugées pendant 10 minutes à 400 g. La solution jaunâtre de MTT est éliminée et les cristaux de formazan bleu formés au niveau cellulaire sont dissous dans 100 µl de DMSO. Les microplaques sont ensuite mises sous agitation pendant 5 minutes. L'intensité de la coloration bleue résultant donc de la transformation du produit MTT jaune en formazan bleu par les cellules encore vivantes au terme de l'expérience est quantifiée par spectrophotométrie à l'aide d'un appareil de type DYNATECH IMMUNOASSAY SYSTEM aux longueurs d'onde de 570 nm et 630 nm correspondant respectivement aux longueurs d'ondes d'absorbance maximale du formazan et au bruit de fond. Un logiciel intégré au spectrophotomètre calcule les valeurs moyennes de densité optique ainsi que les valeurs de déviation standard (Dév. Std.) et d'erreur standard sur la moyenne (ESM).
L'activité inhibitrice de la croissance cellulaire des composés de formules I et la sur les différentes lignées cellulaires tumorales a été comparée à celle du produit naturel, l'ascididémine (CRL 8274). […]

[3] = test system: modèle cellulaire de leucémie; settings: leukaemia cell model, literature value; cited from earlier work
[4] = test system: PC-3; experiment: MTT colorimetric cytotoxicity test, PC-3; assay type: cell-based, humaines; settings: Homo sapiens, PC-3, 72 h incubation, read-out: Concentrations inhibitrices (M) encadrant la valeur de la concentration inhibitrice 50 %
From the text: as §1, §2
(§3) Les 12 lignées cellulaires cancéreuses humaines utilisées ont été obtenues auprès de l'American Type Culture Collection (ATCC, Rockville, MD, USA). […]

[5] = test system: LoVo; experiment: MTT colorimetric cytotoxicity test, LoVo; assay type: cell-based, humaines; settings: Homo sapiens, 72 h incubation, read-out: Concentrations inhibitrices (M) encadrant la valeur de la concentration inhibitrice 50 %
From the text: as §1, §2, §3

[6] = test system: SW1088; experiment: MTT colorimetric cytotoxicity test, SW1088; assay type: cell-based, humaines; settings: SW1088, 72 h incubation, read-out: Concentrations inhibitrices (M) encadrant la valeur de la concentration inhibitrice 50 %
From the text: as §1, §2, §3
Au plan expérimental : 100 µl d'une suspension cellulaire contenant 20 000 à 50 000 (selon le type cellulaire utilisé) cellules/ml de milieu de culture sont ensemencés en plaques multi-puits de 96 puits à fond plat et sont mis à incuber à 37°C, sous atmosphère comprenant 5% de CO2 et 70% d'humidité. […] L'intensité de la coloration bleue résultant donc de la transformation du produit MTT jaune en formazan bleu par les cellules encore vivantes au terme de l'expérience est quantifiée par spectrophotométrie à l'aide d'un appareil de type DYNATECH IMMUNOASSAY SYSTEM aux longueurs d'onde de 570 nm et 630 nm correspondant respectivement aux longueurs d'ondes d'absorbance maximale du formazan et au bruit de fond. […]

[7] = test system: J82; experiment: MTT colorimetric cytotoxicity test, J82; assay type: cell-based, humaines; settings: J82, 72 h incubation, read-out: Concentrations inhibitrices (M) encadrant la valeur de la concentration inhibitrice 50 %
From the text: as §1, §2, §3

[8] = test system: T24; experiment: MTT colorimetric cytotoxicity test, T24; assay type: cell-based, humaines; settings: read-out: Concentrations inhibitrices (M) encadrant la valeur de la concentration inhibitrice 50 %
From the text: as §1, §2, §3

[9] = test system: U-373MG; experiment: MTT colorimetric cytotoxicity test, U-373MG; assay type: cell-based, humaines; settings: 72 h incubation, read-out: Concentrations inhibitrices (M) encadrant la valeur de la concentration inhibitrice 50 %
From the text: as §1, §2, §3

Compound	DMT [1]	IC50 [2]	other results
O=C1c2cccnc2-c2nccc3c2c1nc1ccc(NCc2ccccc2)cc13 [CRL 8241, 5-(benzylamino)-9H-quino[4,3,2-de][1,10] phénanthrolin-9-one]	>160 mg/kg	140 nM	
COc1ccc2nc3c4c(nccc4c2c1)-c1ncccc1C3=O [CRL 8297, 5-méthoxy-9H-quino[4,3,2-de][1,10]phénanthrolin-9-one]	>160 mg/kg	90 nM	
5-chloro-9H-quino [4,3,2-de] [1,10] phénantrolin-9-one [CRL 8301]	>160 mg/kg	270 nM	
COc1ccnc2c1C(=O)c1nc3ccc(Br)cc3c3ccnc-2c13 [CRL 8389, 5-bromo-10-méthoxy-9H-quino[4,3,2-de][1,10]phénanthrolin-9-one]	>160 mg/kg	420 nM	
O=C1c2nccc(Br)c2-c2nc3ccccc3c3ccnc1c23 [CRL 8248, 5-bromo-9H-quino[4,3,2-de] [1,10]phénantrolin-9-one]	>160 mg/kg	80 nM	
5-bis(2-chloroéthyl)amino-9H-quino[4,3,2de][1,10] phénanthrolin-9-one [CRL 8422]	>160 mg/kg	100 nM	
9-H-quino[4,3,2-de][1,10]phénanthrolin-9-one [CRL 8274, reference compound]	20 mg/kg	100 nM	
Chlorhydrate de la 5-(diméthylamino-2-éthyl)amino-9H-quino[4,3,2de][1,10] phénanthrolin-9-one [CRL 8418]	40 mg/kg	110 nM	
2-bromoleptoclinidone [CRL 8269, reference compound]	40 mg/kg	120 nM	DE 50 [3]: 0.4 µg/mL
CC(=O)c1cc(C)ccc1NC1=CC(=O)c2ncccc2C1=O [CRL8322, 6-(2-acétyl-4-méthyl-phénylamino)-quinoline-5,8-dione]			IC50 [4]: > 1e-05 M; IC50 [5]: > 1e-05 M; IC50 ([6]; Homo sapiens): > 1e-05 M; IC50 ([7]; Homo sapiens): > 1e-05 M; IC50 ([8]; Homo sapiens, T-24, T24, 72 h incubation): > 1e-05 M
Chlorhydrate de la 5-amino-9H-quino[4,3,2-de][1,10]phénanthrolin-9-one [CRL 8406]	>160 mg/kg	60 nM	
CN(C)c1ccc2nc3c4c(nccc4c2c1)-c1ncccc1C3=O [CRL 8325, 5-(diméthylamino)-9H-quino[4,3,2-de][1,10]phénanthrolin-9-one]	>160 mg/kg	37 nM	
Cc1ccc2nc3c4c(nccc4c2c1)-c1ncccc1C3=O [CRL 8323, 5-méthyl-9H-quino [4,3,2-de][1,10] phénanthrolin-9-one]	20 mg/kg	60 nM	
CN(C)c1ccc2nc3c4c(nccc4c2c1)-c1ncccc1C3=O [CRL 8407, Chlorhydratede la 5-(diméthylamino)-9H-quino[4,3,2-de][1,10] phénanthrolin-9-one]	>160 mg/kg	22 nM	
CC(=O)c1ccc(Br)cc1NC1=CC(=O)c2ncccc2C1=O [CRL8268, 6-(2-acétyl-5-bromo-phénylamino)-quinoline-5,8 dione]			IC50 ([6]; Homo sapiens): > 1e-05 M
5-(diméthylamino-2-éthyl)amino-9H-quino[4,3,2de][1,10] phénanthrolin-9-one [CRL 8419]	40 mg/kg	60 nM	
5-(2-chloroéthyl)amino-9H-quino[4,3,2de][1,10] phénanthrolin-9-one [CRL 8423]	>160 mg/kg	7 nM	
Cc1ccc2nc3c(c(C)c2c1)C(=O)c1ncccc1C3=O [CRL8324, 9,11-diméthyl-1,6-diaza-naphtacène-5,12-dione]			IC50 [6]: > 1e-05 M; IC50 [7]: > 1e-05 M; IC50 ([8]; T24, 72 h incubation): > 1e-05 M; IC50 [9]: > 1e-05 M
Nc1ccnc2c1-c1nc3ccccc3c3ccnc(c13)C2=O [CRL 8347, 5-amino-9H-quino[4,3,2-de][1,10]phénanthtolin-9-one]	>160 mg/kg	21 nM	
O=C1c2cccnc2-c2nccc3c2c1nc1ccc(NCc2ccccc2)cc13 [CRL 8416, Chlorhydratede la 5-(benzylamino)-9H-quino[4,3,2-de][1,10] phénanthrolin-9-one]	>160 mg/kg	80 nM	
